Measurements from ChEMBL document CHEMBL3885861, “Open TG-GATES”.

Organism: Rattus norvegicus
Experiment: Open TG-GATES - Regimen: Daily Repeat
Type: toxicity, organism-based, Sprague-Dawley
Parameters: regimen Daily Repeat, gender Male, age 6 weeks
Conditions: in vivo, po, 100 mg/kg, route gavage, dose level Low; for APTT / Bas / Eos / Fbg / Hb / Ht / Lym / MCH / MCHC / MCV / Mono / Neu / PT / Plat / RBC / Ret / WBC: tissue Blood; for KIDNEY_L / KIDNEY_R / KIDNEY_TOTAL: tissue Kidney; for LIVER: tissue Liver; for A/G / ALP / ALT / AST / BUN / CRE / Ca / Cl / DBIL / GLC / IP / K / LDH / Na / PL / RALB / TBIL / TC / TG / TP / gamma-GTP: tissue Plasma

SMILES: Cc1nnc2n1-c1ccc(Cl)cc1C(c1ccccc1Cl)=NC2 [TRIAZOLAM]
- TERMINAL_BW (72 h, time 3 day): 218.3 g
- APTT (72 h, time 3 day): 21.4 s
- Bas (72 h, time 3 day): 0%
- Eos (72 h, time 3 day): 1.2%
- Fbg (72 h, time 3 day): 274.2 mg/dL
- Hb (72 h, time 3 day): 13.8 g/dL
- Ht (72 h, time 3 day): 41.1%
- Lym (72 h, time 3 day): 74.2%
- MCH (72 h, time 3 day): 21.5 pg
- MCHC (72 h, time 3 day): 33.7%
- MCV (72 h, time 3 day): 63.9 fL
- Mono (72 h, time 3 day): 3.8%
- Neu (72 h, time 3 day): 20%
- PT (72 h, time 3 day): 13.2 s
- Plat (72 h, time 3 day): 117.9 x10_4/uL
- RBC (72 h, time 3 day): 643 x10_4/ul
- Ret (72 h, time 3 day): 6.6%
- WBC (72 h, time 3 day): 108.6 x10_2/uL
- KIDNEY_L (72 h, time 3 day): 1 g
- KIDNEY_R (72 h, time 3 day): 1 g
- KIDNEY_TOTAL (72 h, time 3 day): 1.9 g
- LIVER (72 h, time 3 day): 10.3 g
- A/G (72 h, time 3 day): 0.9
- ALP (72 h, time 3 day): 1550.6 IU/L
- ALT (72 h, time 3 day): 53.8 IU/L
- AST (72 h, time 3 day): 79 IU/L
- BUN (72 h, time 3 day): 14.2 mg/dL
- CRE (72 h, time 3 day): 0.2 mg/dL
- Ca (72 h, time 3 day): 11.1 mg/dL
- Cl (72 h, time 3 day): 104.6 meq/L
- DBIL (72 h, time 3 day): 0.012 mg/dL
- GLC (72 h, time 3 day): 166.2 mg/dL
- IP (72 h, time 3 day): 8.1 mg/dL
- K (72 h, time 3 day): 4 meq/L
- LDH (72 h, time 3 day): 88.2 IU/L
- Na (72 h, time 3 day): 141 meq/L
- PL (72 h, time 3 day): 142.4 mg/dL
- RALB (72 h, time 3 day): 2.6 g/dL
- TBIL (72 h, time 3 day): 0.054 mg/dL
- TC (72 h, time 3 day): 75.4 mg/dL
- TG (72 h, time 3 day): 76 mg/dL
- TP (72 h, time 3 day): 5.5 g/dL
- gamma-GTP (72 h, time 3 day): 1 IU/L
- TERMINAL_BW ([…], time 7 day): 251.1 g
- TERMINAL_BW ([…], time 14 day): 311.7 g
- TERMINAL_BW ([…], time 28 day): 393.2 g
- APTT ([…], time 7 day): 20.5 s
- Bas ([…], time 7 day): 0%
- Eos ([…], time 7 day): 0.8%
- Fbg ([…], time 7 day): 251.8 mg/dL
- Hb ([…], time 7 day): 13.9 g/dL
- Ht ([…], time 7 day): 41.6%
- Lym ([…], time 7 day): 74.8%
- MCH ([…], time 7 day): 20.9 pg
- MCHC ([…], time 7 day): 33.5%
- MCV ([…], time 7 day): 62.4 fL
- Mono ([…], time 7 day): 2.2%
- Neu ([…], time 7 day): 21.4%
- PT ([…], time 7 day): 13 s
- Plat ([…], time 7 day): 116.7 x10_4/uL
- RBC ([…], time 7 day): 667 x10_4/ul
- Ret ([…], time 7 day): 6.1%
- WBC ([…], time 7 day): 109.2 x10_2/uL
- APTT ([…], time 14 day): 17.9 s
- Bas ([…], time 14 day): 0.8%
- Eos ([…], time 14 day): 1%
- Fbg ([…], time 14 day): 253.2 mg/dL
- Hb ([…], time 14 day): 14.4 g/dL
- Ht ([…], time 14 day): 43.7%
- Lym ([…], time 14 day): 77.2%
- MCH ([…], time 14 day): 20.2 pg
- MCHC ([…], time 14 day): 32.9%
- MCV ([…], time 14 day): 61.6 fL
- Mono ([…], time 14 day): 2.4%
- Neu ([…], time 14 day): 18.4%
- PT ([…], time 14 day): 13.4 s
- Plat ([…], time 14 day): 117.2 x10_4/uL
- RBC ([…], time 14 day): 710.8 x10_4/ul
- Ret ([…], time 14 day): 4.8%
- WBC ([…], time 14 day): 98 x10_2/uL
- APTT ([…], time 28 day): 17.1 s
- Bas ([…], time 28 day): 0.2%
- Eos ([…], time 28 day): 1.2%
- Fbg ([…], time 28 day): 277.4 mg/dL
- Hb ([…], time 28 day): 15.2 g/dL
- Ht ([…], time 28 day): 45.2%
- Lym ([…], time 28 day): 78.4%
- MCH ([…], time 28 day): 19 pg
- MCHC ([…], time 28 day): 33.6%
- MCV ([…], time 28 day): 56.6 fL
- Mono ([…], time 28 day): 1.6%
- Neu ([…], time 28 day): 17.6%
- PT ([…], time 28 day): 13.2 s
- Plat ([…], time 28 day): 110.7 x10_4/uL
- RBC ([…], time 28 day): 798 x10_4/ul
- Ret ([…], time 28 day): 2.4%
- WBC ([…], time 28 day): 93.4 x10_2/uL
- KIDNEY_L ([…], time 7 day): 1.1 g
- KIDNEY_R ([…], time 7 day): 1 g
- KIDNEY_TOTAL ([…], time 7 day): 2.1 g
- KIDNEY_L ([…], time 14 day): 1.2 g
- KIDNEY_R ([…], time 14 day): 1.2 g
- KIDNEY_TOTAL ([…], time 14 day): 2.4 g
- KIDNEY_L ([…], time 28 day): 1.4 g
- KIDNEY_R ([…], time 28 day): 1.4 g
- KIDNEY_TOTAL ([…], time 28 day): 2.8 g
- LIVER ([…], time 7 day): 11.9 g
- LIVER ([…], time 14 day): 13.6 g
- LIVER ([…], time 28 day): 15.5 g
- A/G ([…], time 7 day): 0.9
- ALP ([…], time 7 day): 1700.8 IU/L
- ALT ([…], time 7 day): 48.8 IU/L
- AST ([…], time 7 day): 75.6 IU/L
- BUN ([…], time 7 day): 16.6 mg/dL
- CRE ([…], time 7 day): 0.2 mg/dL
- Ca ([…], time 7 day): 10.9 mg/dL
- Cl ([…], time 7 day): 105.2 meq/L
- DBIL ([…], time 7 day): 0.012 mg/dL
- GLC ([…], time 7 day): 192.4 mg/dL
- IP ([…], time 7 day): 6.9 mg/dL
- K ([…], time 7 day): 4.2 meq/L
- LDH ([…], time 7 day): 77.4 IU/L
- Na ([…], time 7 day): 141.4 meq/L
- PL ([…], time 7 day): 157.4 mg/dL
- RALB ([…], time 7 day): 2.6 g/dL
- TBIL ([…], time 7 day): 0.036 mg/dL
- TC ([…], time 7 day): 78.6 mg/dL
- TG ([…], time 7 day): 104.8 mg/dL
- TP ([…], time 7 day): 5.5 g/dL
- gamma-GTP ([…], time 7 day): 1.4 IU/L
- A/G ([…], time 14 day): 0.8
- ALP ([…], time 14 day): 1617 IU/L
- ALT ([…], time 14 day): 40.2 IU/L
- AST ([…], time 14 day): 72.2 IU/L
- BUN ([…], time 14 day): 16.2 mg/dL
- CRE ([…], time 14 day): 0.2 mg/dL
- Ca ([…], time 14 day): 10.8 mg/dL
- Cl ([…], time 14 day): 104.8 meq/L
- DBIL ([…], time 14 day): 0.008 mg/dL
- GLC ([…], time 14 day): 189.6 mg/dL
- IP ([…], time 14 day): 7.5 mg/dL
- K ([…], time 14 day): 3.8 meq/L
- LDH ([…], time 14 day): 83.4 IU/L
- Na ([…], time 14 day): 142.6 meq/L
- PL ([…], time 14 day): 151.8 mg/dL
- RALB ([…], time 14 day): 2.7 g/dL
- TBIL ([…], time 14 day): 0.04 mg/dL
- TC ([…], time 14 day): 75 mg/dL
- TG ([…], time 14 day): 118.2 mg/dL
- TP ([…], time 14 day): 5.8 g/dL
- gamma-GTP ([…], time 14 day): 1 IU/L
- A/G ([…], time 28 day): 0.8
- ALP ([…], time 28 day): 1207.4 IU/L
- ALT ([…], time 28 day): 42 IU/L
- AST ([…], time 28 day): 64.8 IU/L
- BUN ([…], time 28 day): 15.2 mg/dL
- CRE ([…], time 28 day): 0.2 mg/dL
- Ca ([…], time 28 day): 10.7 mg/dL
- Cl ([…], time 28 day): 105 meq/L
- DBIL ([…], time 28 day): 0.01 mg/dL
- GLC ([…], time 28 day): 178.8 mg/dL
- IP ([…], time 28 day): 6.4 mg/dL
- K ([…], time 28 day): 4.1 meq/L
- LDH ([…], time 28 day): 67.2 IU/L
- Na ([…], time 28 day): 143.6 meq/L
- PL ([…], time 28 day): 142.6 mg/dL
- RALB ([…], time 28 day): 2.7 g/dL
- TBIL ([…], time 28 day): 0.054 mg/dL
- TC ([…], time 28 day): 68.4 mg/dL
- TG ([…], time 28 day): 125.4 mg/dL
- TP ([…], time 28 day): 6.2 g/dL
- gamma-GTP ([…], time 28 day): 0.8 IU/L
